In patent US6416965B2, “Screening methods for presqualene disphosphate analogs” (Brigham and Women's Hospital, priority 1997, dated 2002):

Legend:
neutrophils = test: Neutrophil homotypic adhesion (aggregation, light transmittance); type: cell-based, human
Experimental: (§1) Neutrophils (10^7/500 μl) were electroporated (1.65 kV/cm, 250 μF, Ω∞, Invitrogen Electroporator VI) at 0° C. in the presence of 10−^9-10−^6 M compound VI, VIII, FDP, FMP, squalene or vehicle (ethanol 0.2%). After electroporation, cells, in cytochrome c (0.7 mg/ml), were exposed (10 minutes, 37° C.) to either cytochalasin b (5 μg/mL) and FMLP (10^−7 M)(a) or PMA ((10^−7 M)(b) and supernatants monitored at […]. Electroporation gave a 49.9% reduction in FMLP-stimulated NADPH oxidase compared to naive cells. Values (FIGS. 4a and 4b) represent the mean±SEM for n≧3, d≧6. For adhesion (FIGS. 4c and 4d), changes in light transmittance were monitored (as in Fiore, S., Nicolaou, K. C., Caulfield, T., Kataoka, H. & Serhan, C. N. Biochem. J. 266, 25-31 (1990), the teachings of which are incorporated herein by reference) after addition of compounds VI, VIII (1.6 μM) or vehicle (0.5 min) and FMLP (0.5-5 μM) (2.5 min). Cell viability remained>99%. Values represent the mean±SEM for n=3, d=9. 1,4,5-inositol-triphosphate levels were determined (Amersham) in fresh PMN (10^7 cells) exposed (5 minutes, 37° C.) to compound VI, compound VIII (1 μM) or vehicle and stimulated with FMLP (10^−7M, 37° C.) (as in FIG. 4e). % Inhibition after 10 second exposure to FMLP is reported as mean±SEM for n=4, d≧8. *p <0.05 in Student's paired t-test compared with control, while “NS” indicates no significant change compared to incubations in the presence of vehicle (ethanol 0.2%) alone. Stereochemistry of PSDP and PSMP (FIG. 4f) were assigned by routine methods (Poulter, C. D. and Rilling, H. C. Acc. Chem. Res. 11, 307-313, (1978), the teachings of which are hereby incorporated by reference).

human neutrophils = test: FMLP-stimulated 1,4,5-inositol triphosphate (IP3) formation as surrogate for phospholipase C activity; type: cell-based; conditions: for inhibition of FMLP-triggered IP3 formation: compound 1 μM, 5 min 37° C., FMLP 100 nM, 10 seconds
Experimental: as §1
In addition to PLD, phospholipase C plays a critical role in intracellular signaling via the hydrolysis of inositol lipids to diacyl glyceride (DAG) and inositol trisphosphate (IP3) to effect a cascade of cellular events in response to pro-inflammatory stimuli. DAG activates protein kinases and is converted, in part, to phosphatidic acid by DAG kinase. Therefore, PLC together with DAG kinase provides a second major source of phosphatidic acid in human neutrophils (Agwu, DE, et al., Journal of Clinical Investigation 1991; 88:531). […] To this end, the impact of PSDP on fMLP-stimulated IP3 formation as a surrogate for phospholipase C activity was examined (FIG. 4e).
Amersham's D-myo-inositol 1,4,5-trisphosphate (IP3) [^3H] assay was used for this procedure (Amersham code TRK 1000, including product assay, the contents of which are incorporated herein by reference). The assay is based on procedures developed by Takata S. et al. J. Clin. Invest. 93:499 (1994) and Dillon S. B. et al. J. Biol. Chem. 262:11546 (1987), the contents of which are incorporated herein by reference in their entirety. [drawing 24] […]

Gst-Grb2 fusion protein = biological target: T1, Gst-Grb2 fusion protein (Homo sapiens, UniProt P62993); test: PSDP equilibrium binding assay to GST-GRB2
T1 construct: purchased Upstate Biotechnology 14-128
T1 sequence (P62993 whole entry, the tested form may be a part): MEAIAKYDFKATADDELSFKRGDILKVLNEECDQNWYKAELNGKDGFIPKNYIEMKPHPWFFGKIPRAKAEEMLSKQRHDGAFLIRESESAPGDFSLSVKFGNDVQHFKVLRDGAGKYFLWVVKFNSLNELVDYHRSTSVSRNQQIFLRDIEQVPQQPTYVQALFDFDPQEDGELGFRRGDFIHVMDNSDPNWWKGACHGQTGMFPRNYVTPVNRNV
Experimental: Equilibrium binding was determined for ^32PO4-PSDP (1 μM) to the adaptor protein, Grb2, which is known to carry two SH3 domains and one SH2 domain (Lowenstein, EJ, et al., Cell, 1992; 70:431). […] Bound material was separated from unbound by spin filtration (0.2 μm) and quantitated by scintillation counting.
To 100 μl of 0.9% NaCl was added 2 μg GST-GRB2 with 0-100 μg compound (e.g., delipidated human serum albumin, SH3-bearing SOS peptide or unlabeled PSDP) to be tested. The samples were prepared directly in the top of PGC spin filter tubes.
To the solution was added radiolabeled-PSDP in 1 μl ethanol. The mixture was vortexed and incubated at 37° C. for 30 minutes. After the incubation period, the sample was centrifuged at 2000 rpm at 25° C. for 3 minutes. […] The filter was removed, placed in a scintillation vial and the amount of radioactivity bound to the trapped agarose complex (i.e., bound material) was determined.
1 ml of CHCl3:MeOH (2:1) was added to the filtrate (a clear interface should be evident). […] At this stage, dependent upon the amount of radioactivity present, the radioactivity of the sample was determined either in scintillation fluid or by phosphoimage after TLC. […]
Bound material is reflected in the filtrate by loss of radioactivity when radiolabeled material is incubated in the presence of the GRB2 complex compared to the absence of the agarose complex. […]

## CC(C)=CCC/C(C)=C/CC/C(C)=C/C1C(COP(=O)(O)OP(=O)(O)O)C1(C)CC/C=C(\C)CCC=C(C)C (stereo in doubt) [Compound VI, presqualene diphosphate]
neutrophils; no agonist
  stimulation of adhesion by the compound alone: neither compound VI nor VIII alone stimulated
neutrophils; μM levels
  inhibition of FMLP-stimulated homotypic adhesion: inhibited
neutrophils; μM levels (1.6 μM), FMLP 0.5-5 μM, intact cells, p<0.001
  inhibition of the aggregatory response to FMLP (homotypic adhesion): 63%
Human neutrophils
  inhibition of FMLP-triggered IP3 formation: 56%
Human neutrophils; listed as PSDP
  inhibition of FMLP-triggered IP3 formation: > 50%
Human neutrophils; nM-μM amounts
  inhibition of 1,4,5-inositol-triphosphate formation: inhibited
Gst-Grb2 fusion protein; 32PO4-PSDP 1 μM, 20 min 37° C.
  binding of radiolabeled PSDP to Gst-Grb2 complexed to agarose beads: bound
Gst-Grb2 fusion protein; excess unlabeled PSDP, albumin 50 μg, Sos 50 μg
  competition of radioligand (32PO4-PSDP) off Gst-Grb2: could be competed off
